From patent publication US8258138B2, “Potassium channel blockers” (Xention Limited, priority 2008, dated 2012)

Target: T1, human Kv1.3 (Homo sapiens, UniProt P22001)
T1 construct: expressed in transfected cells; host or cells: stably transfected cells grown in medium for CHO cells
Assay: Kv1.3 Autopatch electrophysiology (whole cell patch-clamp, inhibition of charge movement)
Assay type: cell-based
Settings: compound at 1 μM, cells stably transfected with human Kv1.3, room temperature, total charge during step to +30 mV relative to control; for inhibition at 1 µM: read-out: hKv1.3 % inh.
Procedure: Kv1.3 Autopatch Electrophysiology Method
Compounds were tested on these cells using the AutoPatch technology in whole cell mode.
The external bathing solution contained (in mM): 150 NaCl, 10 KCl, 1 MgCl2, 3 CaCl2, 10 HEPES, pH 7.4 with NaOH. Patch pipettes were filled with an electrode solution of composition (in mM): 100 K-Gluconate, 20 KCl, 1 MgCl2, 1 CaCl2, 10 HEPES, 11 EGTA, 5 ATP-Na2, 2 Glutathione pH 7.2 with KOH.
Compounds were dissolved in DMSO (100%) and made up in the external bather at a concentration of 1 μM immediately prior to use. All experiments were conducted at room temperature.
A cell suspension (10 ml), with a density of 6×10^6 cells, was aliquoted into a 15 ml centrifuge tube and stored at 4° C. before use. Prior to use a tube was taken and centrifuged at 1000 rpm for 4 mins at room temperature. The supernatant was then discarded, leaving a cell pellet at the bottom of the tube. The pellet was then resuspended using 1 ml of cold (4° C.), filtered (0.22 μm), 0.05% BSA/bather solution (0.05 g BSA/100 ml bather). The bottom of the tube was manually agitated followed by gentle tituration. The cell suspension was then placed in the AutoPatch™ temperature controlled cell-hotel at 14° C. and regularly titurated.
A length of Teflon capillary tubing was dipped into the cell suspension solution, and a column of fluid was taken up by negative pressure. The column of fluid was in electrically connectivity with a Ag/AgCl reference electrode. Borosilicate glass patch pipettes (from 1.5 mm OD, thin-walled filamented, GC150-TF capillary glass, Harvard) were pulled using a DMZ pipette puller (Zeitz Instruments), and were back-filled using the internal pipette solution, being careful that no bubbles remained at the tip or in the body of the pipette. Patch pipettes typically had resistances of 2.5-3.5 MΩ. Once filled, the pipette tip and a proportion of the shaft (˜15 mm) were dipped into Sigmacote (Sigma). The recording pipettes were placed in a multiwell array and mounted on the AutoPatch™ machine. Automated patch-clamping and drug-application was initiated by the operator, but thereafter AutoPatch.exe continued the experiment providing that pre-set conditions and criteria were satisfied.
Whole cell patch-clamp recordings were made using the AutoPatch™ rig, which incorporated an EPC9 or EPC10 amplifier (HEKA, Germany) under control of Pulse software (v8.54 or v8.76, HEKA, Germany), a cell applicator, automated drug application system (DAS), valve controller (VF1) and a suction device all at room temperature. This equipment was completely under the control of AutoPatch.exe and operator intervention was only made when there was a requirement to refill the bather reservoirs or to prevent the loss of a cell due to a technical error.
Cells were continuously perfused with external solution at a flow rate of ˜2 ml/minute.
Electrophysiology voltage-step protocols and analysis of data was performed as follows. Data were sampled at 5 kHz, and filtered with a −3 dB bandwidth of 2.5 kHz. Cells were held at a voltage of −80 mV. Currents were evoked by a voltage step to +30 mV for 500 ms in duration applied every 15 s. Online analysis of the hKv1.3 current during the application of compounds was performed by the Pulse (v8.54 or v8.76, HEKA, Germany), Excel (Microsoft, USA) and AutoPatch™ software, with the total charge measured during the whole of voltage step. Inhibition of charge movement in the presence of drug was calculated relative to control.

T1 sequence (P22001 whole entry): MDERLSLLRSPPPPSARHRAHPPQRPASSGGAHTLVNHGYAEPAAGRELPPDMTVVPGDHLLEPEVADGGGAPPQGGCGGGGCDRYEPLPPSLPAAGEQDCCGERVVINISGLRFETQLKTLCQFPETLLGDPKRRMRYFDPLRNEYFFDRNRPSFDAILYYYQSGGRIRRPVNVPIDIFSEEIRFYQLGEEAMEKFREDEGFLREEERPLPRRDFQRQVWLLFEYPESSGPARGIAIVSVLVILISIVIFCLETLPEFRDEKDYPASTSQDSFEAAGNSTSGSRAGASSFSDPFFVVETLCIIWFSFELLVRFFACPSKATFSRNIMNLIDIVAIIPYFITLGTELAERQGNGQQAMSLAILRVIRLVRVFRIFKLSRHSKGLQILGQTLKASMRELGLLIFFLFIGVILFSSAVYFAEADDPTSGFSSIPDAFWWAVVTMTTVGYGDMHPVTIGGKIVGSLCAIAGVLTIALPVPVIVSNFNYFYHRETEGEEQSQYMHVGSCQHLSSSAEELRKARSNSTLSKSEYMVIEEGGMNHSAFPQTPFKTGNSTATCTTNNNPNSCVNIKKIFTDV

inhibition at 1 µM [%] | Compound | hKv1.3 % inh. [%]
54 | COc1cccc(CN(c2ccc(C(=O)N3CCN(c4ccccc4)CC3)cc2)S(=O)(=O)c2cn(C)cn2)c1 [Example 45, 1-Methyl-1H-imidazole-4-sulfonic acid (3-methoxy-benzyl)-[4-(4-phenyl-piperazine-1-carbonyl)-phenyl]-amide] | 
48 | Cn1cnc(S(=O)(=O)N(Cc2ccc(Cl)c(Cl)c2)c2ccc(C(=O)N3CCCCC3)cc2)c1 [Example 96, 1-Methyl-1H-imidazole-4-sulfonic acid (3,4-dichloro-benzyl)-[4-(piperidine-1-carbonyl)-phenyl]-amide] | 
85 | Cc1ccccc1CN(c1ccc(C(=O)N2CCN(c3ccccc3)CC2)cc1)S(=O)(=O)c1ccccc1 [Example 34, N-(2-Methyl-benzyl)-N-[4-(4-phenyl-piperazine-1-carbonyl)-phenyl]-benzenesulfonamide] | 
83 | Cc1noc(C2CCCN(C(=O)c3ccc(N(Cc4ccc(Cl)cc4)S(=O)(=O)c4cn(C)cn4)cc3)C2)n1 (centres unmarked) [Example 60, 1-Methyl-1H-imidazole-4-sulfonic acid (4-chloro-benzyl)-{4-[3-(3-methyl-[1,2,4]oxadiazol-5-yl)-piperidine-1-carbonyl]-phenyl}-amide] | 
88 | Cn1ccc(S(=O)(=O)N(Cc2ccc(Cl)cc2)c2ccc(C(=O)N3CCCCC3)cc2)n1 [Example 86, 1-Methyl-1H-pyrazole-3-sulfonic acid (4-chloro-benzyl)-[4-(piperidine-1-carbonyl)-phenyl]-amide] | 
 | CN(C)S(=O)(=O)N(Cc1ccccc1)c1ccc(C(=O)N2CCC(O)(c3ccccc3)CC2)cc1 [Example 71, N-Benzyl-N′N′-dimethyl-N-[4-(4-hydroxy-4-phenyl-piperidine-1-carbonyl)-phenyl]-sulfamide] | 27
45 | Cn1cnc(S(=O)(=O)N(Cc2ccccc2)c2ccc(C(=O)N3CCN(CC4CCCCC4)CC3)cc2)c1 [Example 76, 1-Methyl-1H-imidazole-4-sulfonic acid benzyl-[4-(4-cyclohexylmethyl-piperazine-1-carbonyl)-phenyl]-amide] | 
64 | CN1CCN(C(=O)c2ccc(N(Cc3ccccc3)S(=O)(=O)c3cn(C)cn3)cc2)CC1c1ccccc1 (centres unmarked) [Example 83, 1-Methyl-1H-imidazole-4-sulfonic acid benzyl-[4-(4-methyl-3-phenyl-piperazine-1-carbonyl)-phenyl]-amide] | 
30 | Cn1cnc(S(=O)(=O)N(Cc2ccccc2)c2ccc(C(=O)N3CCCC(F)C3)cc2)c1 (centres unmarked) [Example 80, 1-Methyl-1H-imidazole-4-sulfonic acid benzyl-[4-(3-fluoro-piperidine-1-carbonyl)-phenyl]-amide] | 
43 | Cn1cnc(S(=O)(=O)N(Cc2ccc(Cl)cc2)c2ccc(C(=O)N3CCCCC3)cc2)c1 [Example 67, 1-Methyl-1H-imidazole-4-sulfonic acid (4-chloro-benzyl)-[4-(piperidine-1-carbonyl)-phenyl]-amide] | 
 | CN(C)S(=O)(=O)N(Cc1ccccc1)c1ccc(C(=O)N2CCN(c3ccccc3C#N)CC2)cc1 [Example 5, N-Benzyl-N′N′-dimethyl-N-{4-[4-(2-cyano-phenyl)-piperazine-1-carbonyl]-phenyl}-sulfamide] | 42
81 | O=C(c1ccc(N(Cc2ccccc2)S(=O)(=O)c2ccco2)cc1)N1CCN(c2ccccc2)CC1 [Example 41, Furan-2-sulfonic acid benzyl-[4-(4-phenyl-piperazine-1-carbonyl)-phenyl]-amide] | 
61 | Cn1cnc(S(=O)(=O)N(Cc2ccc(F)c(Cl)c2)c2ccc(C(=O)N3CCCCC3)cc2)c1 [Example 97, 1-Methyl-1H-imidazole-4-sulfonic acid (3-chloro-4-fluoro-benzyl)-[4-(piperidine-1-carbonyl)-phenyl]-amide] | 
61 | Cn1nccc1S(=O)(=O)N(Cc1ccccc1)c1ccc(C(=O)N2CCNC(c3ccccc3)C2)cc1 (centres unmarked) [Example 89, 2-Methyl-2H-pyrazole-3-sulfonic acid benzyl-[4-(3-phenyl-piperazine-1-carbonyl)-phenyl]-amide] | 
 | CC(C)c1noc(C2CCCN(C(=O)c3ccc(N(Cc4ccccc4)S(=O)(=O)N(C)C)cc3)C2)n1 (centres unmarked) [Example 69, N-Benzyl-N′N′-dimethyl-N-{4-[3-(3-isopropyl-[1,2,4]oxadiazol-5-yl)-piperidine-1-carbonyl]-phenyl}-sulfamide] | 31
50 | O=C(c1ccc(N(Cc2ccc(C(F)(F)F)cc2)S(=O)(=O)c2ccccc2)cc1)N1CCN(c2ccccc2)CC1 [Example 36, N-[4-(4-Phenyl-piperazine-1-carbonyl)-phenyl]-N-(4-trifluoromethyl-benzyl)-benzenesulfonamide] | 
64 | Cn1cnc(S(=O)(=O)N(Cc2ccccc2)c2ccc(C(=O)N3CCN(c4ccccc4F)CC3)cc2)c1 [Example 75, 1-Methyl-1H-imidazole-4-sulfonic acid benzyl-{4-[4-(2-fluoro-phenyl)-piperazine-1-carbonyl]-phenyl}-amide] | 
60 | Cn1cnc(S(=O)(=O)N(Cc2ccccc2)c2ccc(C(=O)N3CCC(F)(F)CC3)cc2)c1 [Example 79, 1-Methyl-1H-imidazole-4-sulfonic acid benzyl-[4-(4,4-difluoro-piperidine-1-carbonyl)-phenyl]-amide] | 
51 | Cc1ccc(CN(c2ccc(C(=O)N3CCCC(C)C3)cc2)S(=O)(=O)c2cn(C)cn2)cc1 (centres unmarked) [Example 95, 1-Methyl-1H-imidazole-4-sulfonic acid (4-methyl-benzyl)-[4-(3-methyl-piperidine-1-carbonyl)-phenyl]-amide] | 
74 | Cn1cnc(S(=O)(=O)N(Cc2ccccc2)c2ccc(C(=O)N3CCCC(C(F)(F)F)C3)cc2)c1 (centres unmarked) [Example 78, 1-Methyl-1H-imidazole-4-sulfonic acid benzyl-[4-(3-trifluoromethyl-piperidine-1-carbonyl)-phenyl]-amide] | 
94 | O=C(c1ccc(N(Cc2ccccc2)S(=O)(=O)c2ccccc2)cc1)N1CCCCC1 [Example 3, N-Benzyl-N-[4-(piperidine-1-carbonyl)-phenyl]-benzenesulfonamide] | 
51 | CC1CCCN1C(=O)c1ccc(N(Cc2ccc(Cl)cc2)S(=O)(=O)c2cn(C)cn2)cc1 (centres unmarked) [Example 98, 1-Methyl-1H-imidazole-4-sulfonic acid (4-chloro-benzyl)-[4-(2-methyl-pyrrolidine-1-carbonyl)-phenyl]-amide] | 
50 | N#Cc1ccccc1CN(c1ccc(C(=O)N2CCN(c3ccccc3)CC2)cc1)S(=O)(=O)c1ccccc1 [Example 38, N-(2-Cyano-benzyl)-N-[4-(4-phenyl-piperazine-1-carbonyl)-phenyl]-benzenesulfonamide] | 
 | CN(C)S(=O)(=O)N(Cc1ccccc1)c1ccc(C(=O)N2CCC(Oc3ccccc3)CC2)cc1 [Example 72, N-Benzyl-N′N′-dimethyl-N-[4-(4-phenoxy-piperidine-1-carbonyl)-phenyl]-sulfamide] | 68
51 | CC1CCCN(C(=O)c2ccc(N(Cc3ccccc3)S(=O)(=O)c3cn(C)cn3)cc2)C1 (centres unmarked) [Example 74, 1-Methyl-1H-imidazole-4-sulfonic acid benzyl-[4-(3-methyl-piperidine-1-carbonyl)-phenyl]-amide] | 
42 | Cn1cnc(S(=O)(=O)N(Cc2ccccc2)c2ccc(C(=O)N3CCN(c4nccs4)CC3)cc2)c1 [Example 77, 1-Methyl-1H-imidazole-4-sulfonic acid benzyl-[4-(4-thiazol-2-yl-piperazine-1-carbonyl)-phenyl]-amide] | 
